Data: PMC9133015 (Nature Communications, 2022)
Values joined by “and” are separate entries in the source; they are usually repeats but may differ in a detail not shown here. Equal values may be shown once. Read-outs that look alike come from different tables or passages of the source.

Tests used:
DYRK2 = molecular target: T1, DYRK2 (Homo sapiens, UniProt Q92630); test: DYRKs kinase activity assay (33P-ATP, DYRKtide substrate): DYRK2; type: biochemical
T1 construct: purchased Reaction Biology Corporation (assay service)
T1 sequence (Q92630 1-601): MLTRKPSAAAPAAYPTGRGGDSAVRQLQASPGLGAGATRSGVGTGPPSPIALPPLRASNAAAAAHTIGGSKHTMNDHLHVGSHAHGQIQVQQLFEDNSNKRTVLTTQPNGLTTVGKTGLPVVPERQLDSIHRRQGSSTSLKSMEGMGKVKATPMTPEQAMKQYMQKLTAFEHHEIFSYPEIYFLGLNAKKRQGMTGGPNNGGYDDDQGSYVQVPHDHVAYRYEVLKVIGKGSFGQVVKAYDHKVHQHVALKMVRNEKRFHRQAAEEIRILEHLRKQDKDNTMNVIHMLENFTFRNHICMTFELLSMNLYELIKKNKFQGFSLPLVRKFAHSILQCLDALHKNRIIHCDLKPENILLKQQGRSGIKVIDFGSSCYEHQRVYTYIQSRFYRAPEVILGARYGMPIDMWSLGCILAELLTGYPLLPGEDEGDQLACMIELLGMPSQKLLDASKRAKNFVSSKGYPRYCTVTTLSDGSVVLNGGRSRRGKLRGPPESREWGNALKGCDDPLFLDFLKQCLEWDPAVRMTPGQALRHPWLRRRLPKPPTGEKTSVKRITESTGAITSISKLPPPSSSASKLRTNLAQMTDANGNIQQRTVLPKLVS

DYRK2 protein = molecular target: T2, DYRK2 protein (Homo sapiens, UniProt Q92630); test: Microscale thermophoresis binding assay; details: for Fnorm: triplicates
T2 construct: 6xHis (N, cleaved yes); TEV protease cleavage site (N, cleaved yes); made in house; host or cells: E. coli BL21 (DE3)
T2 sequence (Q92630 72-479 isoform Q92630-2): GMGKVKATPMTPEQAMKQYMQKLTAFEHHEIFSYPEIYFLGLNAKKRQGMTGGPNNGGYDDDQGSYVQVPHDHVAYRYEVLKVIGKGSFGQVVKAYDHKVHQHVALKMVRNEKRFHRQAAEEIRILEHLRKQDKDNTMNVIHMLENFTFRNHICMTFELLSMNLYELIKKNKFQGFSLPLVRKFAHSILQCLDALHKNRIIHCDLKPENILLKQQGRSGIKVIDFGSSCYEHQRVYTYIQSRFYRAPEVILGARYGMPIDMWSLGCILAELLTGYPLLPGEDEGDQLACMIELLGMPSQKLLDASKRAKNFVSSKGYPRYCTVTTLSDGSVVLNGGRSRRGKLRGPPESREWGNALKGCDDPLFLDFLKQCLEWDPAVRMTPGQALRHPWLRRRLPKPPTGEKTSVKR

CC(C)N1CCN(Cc2ccc(Nc3ncc(F)c(-c4ccc5ncsc5c4)n3)nc2)CC1 [Compound 12]
inhibition at 0.00152416 µM (DYRK2; 0.00152416 µM, duplicates, read-out: % Inhibition DYRK2): 3.73%
inhibition at 0.0137174 µM (DYRK2; 0.0137174 µM, duplicates, read-out: % Inhibition DYRK2): 8.64%
inhibition at 0.0411523 µM (DYRK2; 0.0411523 µM, duplicates, read-out: % Inhibition DYRK2): 21.1%
inhibition at 0.123457 µM (DYRK2; 0.123457 µM, duplicates, read-out: % Inhibition DYRK2): 34.4%
inhibition at 0.37037 µM (DYRK2; 0.37037 µM, duplicates, read-out: % Inhibition DYRK2): 57.9%
inhibition at 1.11111 µM (DYRK2; 1.11111 µM, duplicates, read-out: % Inhibition DYRK2): 76.8%
inhibition at 3.33333 µM (DYRK2; 3.33333 µM, duplicates, read-out: % Inhibition DYRK2): 87.6%
inhibition at 10 µM (DYRK2; 10 µM, duplicates, read-out: % Inhibition DYRK2): 82.5%
% Inhibition (DYRK2; DYRK2 kinase, Conc. 0.000508053 µM, duplicate values): 5.75% and 2.04%
% Inhibition (DYRK2; DYRK2 kinase, Conc. 0.00152416 µM, duplicate values): 4.49%
inhibition at 0.00152416 µM (DYRK2; DYRK2 kinase, Conc. 0.00152416 µM, duplicate values, read-out: % Inhibition): 3.73%
% Inhibition (DYRK2; DYRK2 kinase, Conc. 0.00457247 µM, duplicate values): 3.40% and 7.56%
% Inhibition (DYRK2; DYRK2 kinase, Conc. 0.0137174 µM, duplicate values): 7.85%
inhibition at 0.0137174 µM (DYRK2; DYRK2 kinase, Conc. 0.0137174 µM, duplicate values, read-out: % Inhibition): 8.64%
% Inhibition (DYRK2; DYRK2 kinase, Conc. 0.0411523 µM, duplicate values): 22.26%
inhibition at 0.0411523 µM (DYRK2; DYRK2 kinase, Conc. 0.0411523 µM, duplicate values, read-out: % Inhibition): 21.1%
% Inhibition (DYRK2; DYRK2 kinase, Conc. 0.123457 µM, duplicate values): 33.57%
inhibition at 0.123457 µM (DYRK2; DYRK2 kinase, Conc. 0.123457 µM, duplicate values, read-out: % Inhibition): 34.4%
% Inhibition (DYRK2; DYRK2 kinase, Conc. 0.37037 µM, duplicate values): 58.41%
inhibition at 0.37037 µM (DYRK2; DYRK2 kinase, Conc. 0.37037 µM, duplicate values, read-out: % Inhibition): 57.9%
% Inhibition (DYRK2; DYRK2 kinase, Conc. 1.11111 µM, duplicate values): 75.65%
inhibition at 1.11111 µM (DYRK2; DYRK2 kinase, Conc. 1.11111 µM, duplicate values, read-out: % Inhibition): 76.8%
% Inhibition (DYRK2; DYRK2 kinase, Conc. 3.33333 µM, duplicate values): 88.99%
inhibition at 3.33333 µM (DYRK2; DYRK2 kinase, Conc. 3.33333 µM, duplicate values, read-out: % Inhibition): 87.6%
% Inhibition (DYRK2; DYRK2 kinase, Conc. 10 µM, duplicate values): 86.13%
inhibition at 10 µM (DYRK2; DYRK2 kinase, Conc. 10 µM, duplicate values, read-out: % Inhibition): 82.5%
IC50 (DYRK2; Supplementary Table 1, read-out: IC50 (μM), DYRK2 kinase): 0.263 µM
IC50 (DYRK2; read-out: DYRK2 IC50): 0.263 µM
Kd (DYRK2 protein): 4210 nM
Fnorm (DYRK2 protein; Ligand Concentration 1.52588e-9 M): 954.38 ‰ and 953.199 ‰ and 953.894 ‰
Fnorm (DYRK2 protein; Ligand Concentration 3.05176e-9 M): 952.707 ‰ and 951.359 ‰ and 952.777 ‰
Fnorm (DYRK2 protein; Ligand Concentration 6.10352e-9 M): 952.691 ‰ and 953.017 ‰ and 952.481 ‰
Fnorm (DYRK2 protein; Ligand Concentration 1.2207e-8 M): 952.212 ‰ and 953.635 ‰ and 952.43 ‰
Fnorm (DYRK2 protein; Ligand Concentration 2.44141e-8 M): 953.58 ‰ and 951.571 ‰ and 954.168 ‰
Fnorm (DYRK2 protein; Ligand Concentration 4.88281e-8 M): 951.243 ‰ and 951.794 ‰ and 952.294 ‰
Fnorm (DYRK2 protein; Ligand Concentration 9.76563e-8 M): 951.852 ‰ and 953.231 ‰ and 951.931 ‰
Fnorm (DYRK2 protein; Ligand Concentration 1.95313e-7 M): 949.537 ‰ and 959.016 ‰ and 950.589 ‰
Fnorm (DYRK2 protein; Ligand Concentration 3.90625e-7 M): 952.367 ‰ and 950.104 ‰ and 950.78 ‰
Fnorm (DYRK2 protein; Ligand Concentration 7.8125e-7 M): 949.243 ‰ and 949.342 ‰ and 952.357 ‰
Fnorm (DYRK2 protein; Ligand Concentration 1.5625e-6 M): 951.973 ‰ and 948.051 ‰ and 949.742 ‰
Fnorm (DYRK2 protein; Ligand Concentration 3.125e-6 M): 946.14 ‰ and 947.629 ‰ and 949.334 ‰
Fnorm (DYRK2 protein; Ligand Concentration 6.25e-6 M): 948.962 ‰ and 949.021 ‰ and 944.76 ‰
Fnorm (DYRK2 protein; Ligand Concentration 1.25e-5 M): 945.246 ‰ and 944.859 ‰ and 943.424 ‰
Fnorm (DYRK2 protein; Ligand Concentration 2.5e-5 M): 944.179 ‰ and 942.478 ‰ and 945.127 ‰
Fnorm (DYRK2 protein; Ligand Concentration 5e-5 M): 942.507 ‰ and 940.515 ‰ and 942.733 ‰
